Earlier results as cited in US5814653A, “Pharmaceutical method using 6-substituted-1, 2, 3, 4-tetrahydro-9H-carbazoles and 7-substituted-10H -cyclohepta (7, 6-B) indoles” (priority 1997, dated 1998).

Tests used:
neurogenic inflammation = settings: Neurology, 43(suppl. 3), S16-S20 (1993)
[1] = in vivo
migraine headache = settings: Humphrey, et al. (1990)

CNS(=O)(=O)Cc1ccc2[nH]cc(CCN(C)C)c2c1.O=C(O)CCC(=O)O [Compound I, 3-[2-(dimethylamino)ethyl]-N-methyl-1H-indole-5-methanesulfonamide butane-1,4-dioate (1:1)]
blockade of neurogenic inflammation (neurogenic inflammation): blocked
undesirable side effects [1]: undesirable side effects, particularly vasoconstriction
effectiveness in the treatment of migraine headache (migraine headache): effective in the treatment of migraine
